From ChEMBL document CHEMBL1201862, “PubChem BioAssay data set” (2004)
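In this assay, cells in 96-well plates receive the compound at five concentrations for 48 hours. Endpoints are linearly interpolated between the surrounding concentrations. GI50 = concentration required for 50% inhibition of growth.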 Activity calls are given as the source filed them. Cut-off read from the data, not from the text of the source: active = GI50 up to about 1.1 µM and inactive = higher.

Legend:
Assay in all cases: DTP human tumour cell line panel, 48 h
[1] = system: IGROV-1
[2] = system: A498
[3] = system: SW-620
[4] = system: K562
[5] = system: DMS-273
[6] = system: COLO 205
[7] = system: HOP-62
[8] = system: SF-295
[9] = system: RXF 393
[10] = system: UO-31
[11] = system: SK-MEL-28
[12] = system: OVCAR-3
[13] = system: HL-60
[14] = system: 786-0
[15] = system: HOP-92
[16] = system: A549
[17] = system: DMS-114
[18] = system: SK-OV-3
[19] = system: M14
[20] = system: TK-10
[21] = system: UACC-62
[22] = system: SNB-19
[23] = system: SN12C
[24] = system: KM-20L2
[25] = system: RPMI-8226
[26] = system: NCI-H23
[27] = system: HCT-15
[28] = system: SF-268
[29] = system: OVCAR-5
[30] = system: LXFL 529
[31] = system: OVCAR-4
[32] = system: LOX IMVI
[33] = system: M19-MEL
[34] = system: KM12
[35] = system: NCI-H460
[36] = system: SNB-78
[37] = system: OVCAR-8
[38] = system: SR
[39] = system: SNB-75
[40] = system: CAKI-1
[41] = system: ACHN
[42] = system: DLD-1
[43] = system: U-251
[44] = system: SK-MEL-5
[45] = system: NCI-H226
[46] = system: UACC-257
[47] = system: EKVX
[48] = system: HT-29
[49] = system: HCT-116
[50] = system: SF-539
[51] = system: CCRF-CEM
[52] = system: MOLT-4
[53] = system: NCI-H522
[54] = system: Malme-3M
[55] = system: HOP-18
[56] = system: SK-MEL-2
[57] = system: HCC 2998

CCCCN(CC)C(=O)C(=O)Cc1nc2ccc(C(=O)c3ccccc3)cc2nc1O
GI50 [1]: > 100 µM (inactive)
GI50 [2]: > 100 µM (inactive)
GI50 [3]: > 100 µM (inactive)
GI50 [4]: 19.1 µM (inactive)
GI50 [5]: 53 µM (inactive)
GI50 [6]: > 76.2 µM (inactive)
GI50 [7]: > 100 µM (inactive)
GI50 [8]: 59 µM (inactive)
GI50 [9]: 25.5 µM (inactive)
GI50 [10]: 33.3 µM (inactive)
GI50 [11]: 73.3 µM (inactive)
GI50 [12]: > 100 µM (inactive)
GI50 [13]: 20.8 µM (inactive)
GI50 [14]: > 100 µM (inactive)
GI50 [15]: 53 µM (inactive)
GI50 [16]: > 100 µM (inactive)
GI50 [17]: 53.7 µM (inactive)
GI50 [18]: 85.1 µM (inactive)
GI50 [19]: > 100 µM (inactive)
GI50 [20]: > 84.5 µM (inactive)
GI50 [21]: 66.5 µM (inactive)
GI50 [22]: 98.6 µM (inactive)
GI50 [23]: > 86.1 µM (inactive)
GI50 [24]: 31.7 µM (inactive)
GI50 [25]: 27 µM (inactive)
GI50 [26]: 57.9 µM (inactive)
GI50 [27]: 67.1 µM
GI50 [28]: > 100 µM (inactive)
GI50 [29]: > 100 µM (inactive)
GI50 [30]: 47.1 µM (inactive)
GI50 [31]: > 100 µM (inactive)
GI50 [32]: > 84.7 µM (inactive)
GI50 [33]: > 100 µM (inactive)
GI50 [34]: > 100 µM (inactive)
GI50 [35]: 13.6 µM (inactive)
GI50 [36]: 49.5 µM (inactive)
GI50 [37]: > 100 µM (inactive)
GI50 [38]: 21.6 µM (inactive)
GI50 [39]: 25.8 µM (inactive)
GI50 [40]: 54.3 µM (inactive)
GI50 [41]: 41 µM (inactive)
GI50 [42]: > 100 µM (inactive)
GI50 [43]: 73.1 µM (inactive)
GI50 [44]: 50.1 µM (inactive)
GI50 [45]: > 67.9 µM (inactive)
GI50 [46]: > 100 µM (inactive)
GI50 [47]: > 63.2 µM (inactive)
GI50 [48]: 57.5 µM (inactive)
GI50 [49]: > 100 µM (inactive)
GI50 [50]: 98.9 µM (inactive)
GI50 [51]: 27.2 µM (inactive)
GI50 [52]: 21.1 µM (inactive)
GI50 [53]: 20.3 µM (inactive)

CCOC(=O)C1=C(C)N(C2OC(COC(=O)c3ccccc3)C(OC(=O)c3ccccc3)C2OC(=O)c2ccccc2)C(=S)NC1c1ccccc1 (configuration not stated)
GI50 [1]: 46.8 µM (inactive)
GI50 [2]: 28.2 µM (inactive)
GI50 [3]: 33.3 µM (inactive)
GI50 [4]: 17.1 µM (inactive)
GI50 [6]: 33.6 µM (inactive)
GI50 [7]: > 100 µM (inactive)
GI50 [8]: 61.7 µM (inactive)
GI50 [54]: 25.5 µM (inactive)
GI50 [10]: 24.2 µM (inactive)
GI50 [11]: 49.2 µM (inactive)
GI50 [55]: 16.7 µM (inactive)
GI50 [12]: 21.9 µM (inactive)
GI50 [13]: 14.4 µM (inactive)
GI50 [16]: 37.4 µM (inactive)
GI50 [17]: 19 µM (inactive)
GI50 [18]: 60.1 µM (inactive)
GI50 [19]: 25.7 µM (inactive)
GI50 [21]: 29.3 µM (inactive)
GI50 [22]: 55.1 µM (inactive)
GI50 [23]: 40.4 µM (inactive)
GI50 [24]: 43.6 µM (inactive)
GI50 [25]: 16.1 µM (inactive)
GI50 [56]: 64.3 µM (inactive)
GI50 [26]: 29.1 µM (inactive)
GI50 [28]: 44.6 µM (inactive)
GI50 [29]: 61.7 µM (inactive)
GI50 [30]: 27.2 µM (inactive)
GI50 [31]: 29.4 µM (inactive)
GI50 [32]: 58.9 µM (inactive)
GI50 [33]: 33.1 µM (inactive)
GI50 [34]: 50.2 µM (inactive)
GI50 [35]: 31.4 µM (inactive)
GI50 [36]: 31.8 µM (inactive)
GI50 [37]: 44.4 µM (inactive)
GI50 [38]: 20 µM (inactive)
GI50 [39]: 30.4 µM (inactive)
GI50 [40]: 24.4 µM (inactive)
GI50 [41]: 25.1 µM (inactive)
GI50 [42]: 38.9 µM (inactive)
GI50 [43]: 34.9 µM (inactive)
GI50 [44]: 18.4 µM (inactive)
GI50 [45]: 31.1 µM (inactive)
GI50 [46]: 33.5 µM (inactive)
GI50 [57]: 49.2 µM (inactive)
GI50 [47]: 6.79 µM (inactive)
GI50 [48]: 50.6 µM (inactive)
GI50 [49]: 29.9 µM (inactive)
GI50 [50]: 54.8 µM (inactive)
GI50 [51]: 23.1 µM (inactive)
GI50 [52]: 16.1 µM (inactive)
GI50 [53]: 22.1 µM (inactive)

CO[C@H](/C(C)=C/C=C/C(C)=C/c1coc(C)n1)[C@H](C)[C@H]1C[C@@H](O)[C@@]2(C)O[C@H]2/C=C/[C@@H](C)[C@@H]2C[C@@H](CC(=O)O2)C[C@H]2O[C@@H]2C(=O)O1
GI50 [4]: < 0.01 µM (active)
GI50 [5]: < 0.01 µM (active)
GI50 [6]: < 0.01 µM (active)
GI50 [54]: < 0.01 µM (active)
GI50 [55]: 0.05 µM (active)
GI50 [16]: < 0.01 µM (active)
GI50 [17]: < 0.01 µM (active)
GI50 [18]: 1.03e-06 µM (active)
GI50 [20]: 3.21e-06 µM (active)
GI50 [21]: < 0.01 µM (active)
GI50 [24]: < 0.01 µM (active)
GI50 [56]: < 0.01 µM (active)
GI50 [29]: 0.000384 µM (active)
GI50 [30]: < 0.01 µM (active)
GI50 [31]: 5.18e-06 µM (active)
GI50 [33]: < 0.0236 µM (active)
GI50 [38]: < 0.01 µM (active)
GI50 [39]: < 0.0271 µM (active)
GI50 [42]: 0.0147 µM (active)
GI50 [46]: < 0.0283 µM (active)
GI50 [57]: < 0.01 µM (active)
GI50 [47]: 2.03e-06 µM (active)
GI50 [48]: 0.0133 µM (active)
